Test results reported in patent US7728036B2, “Methods for delivery of catecholic butanes for treatment of tumors” (priority 2003, dated 2010).
Entries after “also recorded” stand apart in the source; their conditions may differ.

Key:
[1] = mouse, in vivo
Description: M4N Tissue Distribution Studies Using ^3H-M4N. Harlan ICR mice or C3 cell-induced tumor-bearing C57bl/6 mice were injected via tail vein or intraperitoneally with 100 μL of Cremaphor-ethanol based solvent containing 100 μCi of tritiated M4N and 60 mM of cold M4N. At the specified time post-injection, the mice were sacrificed, the organs and blood were collected, weighed, then dissolved overnight in 4 M guanidine isothiocyanate (GITC). The insoluble pellet was then further extracted with EtOH. Tritium content of both the GITC extract and the EtOH extract was measured on a Packard scintillation counter and the quantity of M4N in each organ was calculated based on the specific activity of the inoculum.
To determine the distribution of M4N in tissues over time following a single application, and also to assess the ability to deliver M4N to a distant tumor, six C3 cell-induced tumor bearing mice (A-F) were treated i.p. with ^3H-M4N as described above. At 4 hours, 6 hours, 18 hours, and 6 days post-injection, the quantities of ^3H-M4N in various tissues and the tumors were measured.

[2] = Toxicokinetic analysis of M4N serum concentration in beagle dogs; settings: dog, in vivo
Description: Blood samples from the CET group animals were collected via the jugular vein on Study Day (SD) 1, SD 3, SD 6, and SD 8 at the following timepoints: predose, 0.25, 0.5, 1, 2, 4, 8, and 16 hours following the completion of the approximate 4-hour infusion.
Blood samples from the DMSO group animals were collected via the cephalic vein on SD 1, SD 3, SD 6, and SD 8 at the following timepoints: predose, 0.25, 0.5, 1, 2, 4, 8, and 16 hours following the final injection dose of M4N-DMSO.
Blood samples collected from both groups of animals were processed for plasma and serum for TK analysis.
The plasma and serum samples were sent to MedTox Laboratories, the Sponsor's designated laboratory for TK analysis. TK analysis of M4N plasma and serum concentration-time data was performed using a validated method (M200406) by MedTox Laboratories and analyzed by noncompartmental methods to obtain estimates of toxicokinetic parameters (where data allow), but not necessarily limited to, Cmax, Tmax and AUC.

[3] = tested on: various human tumor cells; experiment: Cell culture analyses of tumor cell growth; assay type: cell-based
[4] = tested on: HPV-16 transformed immortal mouse epithelial cells (C3); settings: intratumor injection; cited from earlier work
[5] = Tissue distribution after long-term (14 weeks) oral feeding of M4N (HPLC); assay type: in vivo, mice; settings: 14 weeks continuous oral feeding of M4N food balls
Description: Tissue Distribution and Toxicity Analysis Following Short-Term and Long-Term Oral Feeding. For short-term feeding experiments, 30 mg of M4N dissolved in 300 μL castor oil was orally administered to each of 6 mice. At 2 h, 4 h, and 8 h post-administration time points, 2 mice were sacrificed, the organs and blood were collected, and the M4N extracted and quantitated as described below. In long-term feeding experiments, mice were fed food balls consisting of M4N dissolved in corn oil and Basal Mix (Harlan Teklad; Madison, Wis.; Cat. # TD 02273) for 14 weeks. Food balls weighed 9 g and contained 242 mg M4N each. Two mice, one male and one female, were reserved for long-term drug retention studies; and fourteen mice, both male and female, were used for long-term drug toxicity studies. At the end of feeding, mice were sacrificed, the organs and blood were collected, and the M4N extracted and quantitated as described below.
M4N Extraction and HPLC Analysis Following Oral Feeding. Organs and blood were harvested from M4N-fed mice, then frozen overnight at −80° C. Prior to freezing, gastro-intestinal organs (stomach, small intestine, colon) were cut open longitudinally and washed thoroughly with PBS to remove any contents. The following day, organs were cut into small pieces on dry ice with a razor blade, dried in a Speed-vac, then crushed into a rough powder using a mortar and pestle. Samples were extracted overnight in 100% ethanol with shaking. Samples were centrifuged and the supernatant collected. Pellets were extracted two more times in 100% ethanol overnight with shaking. The pooled ethanol extracts were evaporated on bench top for several days, then re-extracted with ethyl acetate, and dried completely in a Speed-vac. The dried samples were then analyzed quantitatively by HPLC and M4N was identified by mass spectroscopy using pure M4N as a standard.
HPLC Quantitation of M4N. Samples from a single mouse at each time point were sent to KP Pharmaceuticals (Bloomington, Ind.) for HPLC analysis. HPLC conditions were described as follows: 35%:0.1% TFA in H2O, 65%=“CAN.” The M4N standard was prepared by diluting 10.01 mg M4N in 100 mL of CAN, then sonicating for 5 min. (2002 ng/injection). The samples were prepared by adding 400 μL EtOH and sonicating for 2 min. or until complete dissolution was achieved. The injection volume for the samples was 100 μL.
The objective of the long-term feeding experiments was to measure the steady state levels of M4N in various mouse organs following continuous oral administration for 14 weeks. Food balls weighing approximately 9 g and containing approximately 280 mg M4N were continually fed to wild-type mice for 14 weeks. A single 9 g food ball is consumed by a single mouse in about 3 days, which translates to […] of M4N consumed or administered daily. […] Between 350 μg and 900 μg M4N per gram tissue was measured in the GI tract organs and the spleen; 15 μg/g to 30 μg/g M4N was measured in the lungs, pancreas, seminal vesicles, blood, and fat; and 5 μg/g to 13 μg/g M4N was measured in the heart, liver, kidneys, and bladder.

[6] = Systemic tissue distribution of 3H-M4N 3 hours after single i.p. or i.v. injection; assay type: in vivo, mice
Description: M4N Tissue Distribution Studies Using ^3H-M4N. […] The insoluble pellet was then further extracted with EtOH.
At 3 hours post-injection, the organs and blood were harvested and weighed, and the M4N was extracted.

[7] = tested on: LNCaP prostate carcinoma cells; experiment: Xenograft assay of human tumors in athymic nude mice, LNCaP; assay type: in vivo, mouse
Text: Xenograft Assay of Human Tumors.
Control mice received vehicle only.

[8] = tested on: human tumor xenografts (MCF-7, Hep3B, HT-29, LNCaP); settings: all four tumor types, of 39 M4N-treated tumors, 21 days
Description: Xenograft Assay of Human Tumors. Athymic nude mice were implanted subcutaneously in their flanks with 2.5×10^6 Hep3B cells, 2×10^6 LNCaP cells, 1×10^7 HT-29 cells, or 2×10^6 MCF-7 cells.
M4N was dissolved in 6% Cremaphor EL, 6% ethanol, 88% saline as described in Loganzo et al. (2003). Mice received a single daily 100 μL i.p. injection containing 2 mg of M4N for 3 weeks. The control mice received an equal volume of the vehicle. Tumors were measured in two perpendicular dimensions (L and W) once every seven days, and the tumor volumes were calculated according to the following formula: V=(L×W/2)^3×π/6. The results from the individual mice were plotted as average tumor volume versus time. Statistical significance of the mean differences in tumor volume was assessed by Student's t-test.
Athymic nude mice were implanted s.c. in each flank with MCF-7 breast adenocarcinoma cells, Hep3B hepatocellular carcinoma cells, HT-29 colorectal carcinoma cells, and LNCaP prostate carcinoma cells. Most mice developed tumors in both flanks, although some developed a single tumor. When tumors attained a mean diameter of 7-8 mm, mice received for three weeks a single daily i.p. injection containing 2 mg of M4N dissolved in 100 uL Cremaphor-ethanol based solvent. Control mice received vehicle only. Tumors were measured in two perpendicular dimensions (L and W) once every seven days, and tumor volumes were calculated according to the formula: V=(L×W/2)^3×π/6.

[9] = LNCaP, of 11 M4N-treated tumors, 21 days i.p. treatment

COc1ccc(C[C@@H](C)[C@@H](C)Cc2ccc(OC)c(OC)c2)cc1OC [M4N, meso-1,4-bis(3,4-dimethoxyphenyl)-2,3-dimethylbutane]
M4N tissue levels relative to levels seen at 6 hours [1]: 5-10% | M4N per gram of wet tumor ([1]; ip): 294 ng per gram of wet tumor | Time of peak M4N tissue levels ([1]; ip): approximately 6 hours | Blood levels of M4N achieved with minimal toxicity [2]: up to 14,000 ng/ml | Growth of human tumor cells in culture [3]: effectively prevent the growth | Suppression of tumor growth / tumoricidal activity [4]: substantial tumoricidal activity; also recorded: some evidence of suppression of tumor growth | M4N ([5]; Bladder): 6.24 µg/g | M4N ([5]; Blood): 23.13 µg/g | M4N ([5]; Caecum): 440.23 µg/g | M4N ([5]; Fat): 17.41 µg/g | M4N ([5]; Heart): 12.62 µg/g | M4N ([5]; Kidneys): 8.33 µg/g | M4N ([5]; Lg. Intestine): 350.88 µg/g | M4N ([5]; Liver): 5.89 µg/g | M4N ([5]; Lungs): 23.09 µg/g | M4N ([5]; Pancreas): 28.81 µg/g | M4N ([5]; Seminal Vesicles): 16.79 µg/g | M4N ([5]; Small Intestine): 906.27 µg/g | M4N ([5]; Spleen): 302.78 µg/g | M4N ([5]; Stomach): 409.27 µg/g | M4N detected in tissue ([6]; heart or blood, 3 hours post-injection): Little or no M4N | M4N present in tissue ([6]; liver and fat, 3 hours post-injection): Significant quantities | Toxicity of systemic i.p. and i.v. injection ([6]; mice, single injection): no apparent toxicity | Tumor Volume Increase (%) - 21 Days Treatment, M4N-Treatment ([7]; LNCaP xenograft, 2 mg M4N i.p. daily for 3 weeks): 25% | Ratio of Mean M4N-Treated Tumor Size to Control Tumor Size ([7]; LNCaP xenograft, 2 mg M4N i.p. daily, 21 days): 46.3% | Reduction in mean tumor volume versus control ([7]; LNCaP, after 21 days systemic M4N treatment): 53% | DOTV: number of tumors with decrease in volume from the original tumor volume [7, 9]: 9 | IOTV: number of tumors with increase in volume from the original tumor volume [7, 9]: 2 | Growth of LNCaP xenograft tumors ([7]; systemic oral administration of M4N): effectively suppresses the growth | DOTV: number of tumors with decrease in volume from the original tumor volume [8]: 21 | IOTV: number of tumors with increase in volume from the original tumor volume [8]: 18 | IOTV: share of tumors with increase in volume [8]: (46%)
